Test results as given in patent publication US10913710B2, “Benzene disulfonamide for the treatment of cancer” (priority 2017, dated 2021).

molecular target: PDEδ (Homo sapiens (Human), UniProt O43924); experiment: Fluorescence polarization competition binding assay: displacement titration of labeled Atorvastatin probe for KD; settings: fluorescence polarization assay; activity classes; read-out: KD
Protocol: Example D.2: Displacement Titrations of Labeled Atorvastatin-Probe for the Determination of KD Values
Displacement Titrations of Labeled Atorvastatin-Probe for the Determination of KD Values:
The purification was followed by size exclusion gel filtration on a Superdex 75 S26/60 column using buffer A (25 mM Tris-HCl, pH 7.5, 150 mM NaCl and 3 mM DTE).

Compound | Kd [nM]
O=S(=O)(c1ccc(S(=O)(=O)N(Cc2ccc(Cl)cc2)C2CCCC2)cc1)N(Cc1cccc(Br)c1)CC1CCCCC1 [Compound 35, N1-(3-bromobenzyl)-N4-(4-chlorobenzyl)-N1-(cyclohexylmethyl)-N4-cyclopentylbenzene-1,4-disulfonamide] | 30 to 100
O=S(=O)(c1ccc(S(=O)(=O)N(Cc2ccc(Cl)cc2)C2CCCC2)cc1)N(CC1CCCCC1)c1ccccc1Br [Compound 36, N1-(2-bromophenyl)-N4-(4-chlorobenzyl)-N1-(cyclohexylmethyl)-N4-cyclopentylbenzene-1,4-disulfonamide] | 30 to 100
O=S(=O)(c1ccc(S(=O)(=O)N(Cc2ccc(Cl)cc2)C2CCCC2)cc1)N(CC1CCCCC1)c1cc(C(F)(F)F)ccc1Br [Compound 37, N1-(2-bromo-5-(trifluoromethyl)phenyl)-N4-(4-chlorobenzyl)-N1-(cyclohexylmethyl)-N4-cyclopentylbenzene-1,4-disulfonamide] | 30 to 100
O=CC1Cc2ccccc2N1S(=O)(=O)c1ccc(S(=O)(=O)N(Cc2ccc(Cl)cc2)C2CCCC2)cc1 (centres unmarked) [Compound 38] | 100 to 1000
O=S(=O)(NCC1CCOCC1)c1ccc(S(=O)(=O)N(Cc2ccc(Cl)cc2)C2CCCC2)cc1 [Compound 39] | 30 to 100
CCOC(=O)c1ccccc1CN(CC1CCOCC1)S(=O)(=O)c1ccc(S(=O)(=O)N(Cc2ccc(Cl)cc2)C2CCCC2)cc1 [Compound 40, ethyl 2-(((4-(N-(4-chlorobenzyl)-N-cyclopentylsulfamoyl)-N-((tetrahydro-2H-pyran-4-yl)methyl)phenyl)sulfonamido)methyl)benzoate] | 100 to 1000
Cc1ccsc1N(Cc1ccccn1)S(=O)(=O)c1ccc(S(=O)(=O)N(Cc2ccccn2)c2sccc2C)cc1 [Compound 41] | > 1000
Cc1ccc(CN(C2CCCC2)S(=O)(=O)c2ccc(S(=O)(=O)N(Cc3ccccn3)c3sccc3C)cc2)cc1 [Compound 42] | 100 to 1000
Cc1ccc(CN(C2CCCC2)S(=O)(=O)c2ccc(S(=O)(=O)N(Cc3ccccn3)c3sccc3C)cc2)cc1Cl [Compound 43] | 100 to 1000
O=S(=O)(NCC1CCNCC1)c1ccc(S(=O)(=O)N(Cc2ccc(Cl)cc2)C2CCCC2)cc1 [Compound 45, N1-(4-chlorobenzyl)-N1-cyclopentyl-N4-(piperidin-4-ylmethyl)benzene-1,4-disulfonamide] | 1 to 30
CCN(CC)S(=O)(=O)c1ccc(S(=O)(=O)N(Cc2ccccn2)Cc2ccco2)cc1 [Compound 46, N1,N1-diethyl-N4-(furan-2-ylmethyl)-N4-(pyridin-2-ylmethyl)benzene-1,4-disulfonamide] | 100 to 1000
CCN(Cc1ccccc1)S(=O)(=O)c1ccc(S(=O)(=O)N(Cc2ccc(F)cc2)Cc2ccco2)cc1 [Compound 47, N1-benzyl-N1-ethyl-N4-(4-fluorobenzyl)-N4-(furan-2-ylmethyl)benzene-1,4-disulfonamide] | 30 to 100
CCN(Cc1ccccc1)S(=O)(=O)c1ccc(S(=O)(=O)N(Cc2ccccc2)Cc2ccccn2)cc1 [Compound 48, N1,N4-dibenzyl-N1-ethyl-N4-(pyridin-2-ylmethyl)benzene-1,4-disulfonamide] | 1 to 30
CCN(Cc1ccccc1)S(=O)(=O)c1ccc(S(=O)(=O)N(Cc2ccccc2)Cc2ccccc2F)cc1 [Compound 49, N1,N4-dibenzyl-N1-ethyl-N4-(2-fluorobenzyl)benzene-1,4-disulfonamide] | 1 to 30
CC1CCCN(S(=O)(=O)c2ccc(S(=O)(=O)N(Cc3ccccc3Cl)CC3CCCO3)cc2)C1 (centres unmarked) [Compound 50, N-(2-chlorobenzyl)-4-((3-methylpiperidin-1-yl)sulfonyl)-N-((tetrahydrofuran-2-yl)methyl)benzenesulfonamide] | 30 to 100
COc1cccc(CN(C2CC2)S(=O)(=O)c2ccc(S(=O)(=O)NCc3ccccc3)cc2)c1OC [Compound 51, N1-benzyl-N4-cyclopropyl-N4-(2,3-dimethoxybenzyl)benzene-1,4-disulfonamide] | 100 to 1000
O=S(=O)(c1ccc(S(=O)(=O)N(Cc2ccc(Cl)cc2)Cc2ccco2)cc1)N1CCCCCC1 [Compound 52, 4-(azepan-1-ylsulfonyl)-N-(4-chlorobenzyl)-N-(furan-2-ylmethyl)benzenesulfonamide] | 100 to 1000
O=S(=O)(NC1CCCC1)c1ccc(S(=O)(=O)N(Cc2ccc(F)cc2)Cc2ccccc2F)cc1 [Compound 53, N1-cyclopentyl-N4-(2-fluorobenzyl)-N4-(4-fluorobenzyl)benzene-1,4-disulfonamide] | 100 to 1000
O=S(=O)(NC1CCCCC1)c1ccc(S(=O)(=O)N(Cc2ccccc2)Cc2ccco2)cc1 [Compound 54, N1-benzyl-N4-cyclohexyl-N1-(furan-2-ylmethyl)benzene-1,4-disulfonamide] | 100 to 1000

Compound | Kd [nM]
CCN(Cc1ccccc1)S(=O)(=O)c1ccc(S(=O)(=O)N(Cc2ccccc2F)CC2CCCO2)cc1 (centres unmarked) [Compound 55, N1-benzyl-N1-ethyl-N4-(2-fluorobenzyl)-N4-((tetrahydrofuran-2-yl)methyl)benzene-1,4-disulfonamide] | 1 to 30
CC(C)c1ccc(CN(CC2CCCO2)S(=O)(=O)c2ccc(S(=O)(=O)N(C)C3CCCCC3)cc2)cc1 (centres unmarked) [Compound 56, N1-cyclohexyl-N4-(4-isopropylbenzyl)-N1-methyl-N4-((tetrahydrofuran-2-yl)methyl)benzene-1,4-disulfonamide] | 1 to 30
COc1ccc(CN(C2CCCCC2C)S(=O)(=O)c2ccc(S(=O)(=O)N(C)C3CCCCC3)cc2)cc1OC (centres unmarked) [Compound 57, N1-cyclohexyl-N4-(3,4-dimethoxybenzyl)-N1-methyl-N4-(2-methylcyclohexyl)benzene-1,4-disulfonamide] | 100 to 1000
CC1CCCN(S(=O)(=O)c2ccc(S(=O)(=O)N(Cc3ccccc3F)C3CCCC3)cc2)C1 (centres unmarked) [Compound 58, N-cyclopentyl-N-(2-fluorobenzyl)-4-((3-methylpiperidin-1-yl)sulfonyl)benzenesulfonamide] | 30 to 100
CC(C)c1ccc(CN(Cc2ccco2)S(=O)(=O)c2ccc(S(=O)(=O)N(C)Cc3ccccc3)cc2)cc1 [Compound 59, N1-benzyl-N4-(furan-2-ylmethyl)-N4-(4-isopropylbenzyl)-N1-methylbenzene-1,4-disulfonamide] | 100 to 1000
COc1cc(CN(C2CCCCC2C)S(=O)(=O)c2ccc(S(=O)(=O)NC3CCCC3)cc2)cc(OC)c1OC (centres unmarked) [Compound 60, N1-cyclopentyl-N4-(2-methylcyclohexyl)-N4-(3,4,5-trimethoxybenzyl)benzene-1,4-disulfonamide] | 100 to 1000
CN(Cc1ccccc1)S(=O)(=O)c1ccc(S(=O)(=O)N(Cc2ccc(F)cc2)C2CCCCC2)cc1 [Compound 61, N1-benzyl-N4-cyclohexyl-N4-(4-fluorobenzyl)-N1-methylbenzene-1,4-disulfonamide] | 1 to 30
O=S(=O)(NCC1CCCO1)c1ccc(S(=O)(=O)N(Cc2ccccc2)Cc2ccc(Cl)cc2)cc1 (centres unmarked) [Compound 62, N1-benzyl-N1-(4-chlorobenzyl)-N4-((tetrahydrofuran-2-yl)methyl)benzene-1,4-disulfonamide] | 100 to 1000
CC(C)c1ccc(CN(CC2CCCO2)S(=O)(=O)c2ccc(S(=O)(=O)NCc3ccccc3)cc2)cc1 (centres unmarked) [Compound 63, N1-benzyl-N4-(4-isopropylbenzyl)-N4-((tetrahydrofuran-2-yl)methyl)benzene-1,4-disulfonamide] | 1 to 30
COc1cc(CN(C2CCCCC2)S(=O)(=O)c2ccc(S(=O)(=O)N(C)C3CCCCC3)cc2)cc(OC)c1OC [Compound 64, N1,N4-dicyclohexyl-N1-methyl-N4-(3,4,5-trimethoxybenzyl)benzene-1,4-disulfonamide] | 100 to 1000
O=S(=O)(NC1CCCCC1)c1ccc(S(=O)(=O)N(Cc2ccccc2)CC2CCCO2)cc1 (centres unmarked) [Compound 65, N1-benzyl-N4-cyclohexyl-N1-((tetrahydrofuran-2-yl)methyl)benzene-1,4-disulfonamide] | 1 to 30
O=S(=O)(NCc1ccccc1)c1ccc(S(=O)(=O)N(Cc2ccco2)Cc2ccccc2F)cc1 [Compound 66, N1-benzyl-N4-(2-fluorobenzyl)-N4-(furan-2-ylmethyl)benzene-1,4-disulfonamide] | > 1000
COc1cccc(CN(CC2CCCO2)S(=O)(=O)c2ccc(S(=O)(=O)N3CCCC3)cc2)c1 (centres unmarked) [Compound 67, N-(3-methoxybenzyl)-4-(pyrrolidin-1-ylsulfonyl)-N-((tetrahydrofuran-2-yl)methyl)benzenesulfonamide] | 100 to 1000
CCN(CC)S(=O)(=O)c1ccc(S(=O)(=O)N(Cc2ccc(OC)c(OC)c2)C2CCCCC2C)cc1 (centres unmarked) [Compound 68, N1-(3,4-dimethoxybenzyl)-N4,N4-diethyl-N1-(2-methylcyclohexyl)benzene-1,4-disulfonamide] | 1 to 30
CCOc1ccc(CN(C2CC2)S(=O)(=O)c2ccc(S(=O)(=O)N(C)C)cc2)cc1 [Compound 69, N1-cyclopropyl-N1-(4-ethoxybenzyl)-N4,N4-dimethylbenzene-1,4-disulfonamide] | 100 to 1000
COc1ccc(CN(C2CCCCC2C)S(=O)(=O)c2ccc(S(=O)(=O)NCc3ccccc3)cc2)cc1OC (centres unmarked) [Compound 70, N1-benzyl-N4-(3,4-dimethoxybenzyl)-N4-(2-methylcyclohexyl)benzene-1,4-disulfonamide] | 100 to 1000
CN(C)S(=O)(=O)c1ccc(S(=O)(=O)N(Cc2ccc(Cl)cc2)Cc2ccco2)cc1 [Compound 71, N1-(4-chlorobenzyl)-N1-(furan-2-ylmethyl)-N4,N4-dimethylbenzene-1,4-disulfonamide] | > 1000
CC1CCCN(S(=O)(=O)c2ccc(S(=O)(=O)N(Cc3ccc4c(c3)OCO4)Cc3ccccc3F)cc2)C1 (centres unmarked) [Compound 72, N-(benzo[d][1,3]dioxol-5-ylmethyl)-N-(2-fluorobenzyl)-4-((3-methylpiperidin-1-yl)sulfonyl)benzenesulfonamide] | 100 to 1000
COc1ccc(CN(Cc2ccc(C)cc2)S(=O)(=O)c2ccc(S(=O)(=O)N(C)Cc3ccccc3)cc2)cc1 [Compound 73, N1-benzyl-N4-(4-methoxybenzyl)-N1-methyl-N4-(4-methylbenzyl)benzene-1,4-disulfonamide] | 100 to 1000
